Data: US4833138A, “Phenothiazinealkaneamines for treatment of neurotoxic injury” (priority 1987, dated 1989)
Structures can show the parent of a compound that is named as a salt.

What was measured:
[1] = system: N-Methylaspartate excitation of spinal neurones; settings: Berry et al, Eur. J. Pharm. 1983; binding and behavioral data; cited from earlier work
[2] = system: [^3 H]PCP binding sites, rat cerebral cortical membranes; settings: Goldman et al, FEBS Lett. 1985; cited from earlier work
[3] = system: NMDA receptor (N-Methyl-Aspartate excitation of central mammalian neurones); settings: Anis et al, Br. J. Pharmacol. 1983; cited from earlier work
[4] = system: NMA neurotoxicity; settings: Olney et al, Neuroscience Letters 1986 for PCP and ketamine; competitive NMA antagonist statement without reference; cited from earlier work
[5] = system: NMA neurotoxicity in chick embryo retina; experiment: NMDA/KA Antagonist Assay, chick embryo retina, NMA (200 μM) neurotoxicity; format: cell-based; settings: 15-day old chick embryo retina, 30 min at 37° C., n>6
Description: (§1) Two agonists were employed in the present test, each at a concentration established previously to be the lowest concentration required to consistently cause a fully-developed retinal lesion: KA (25 μM) and NMA (200 μM). […] Internal controls in each experiment consisted of at least six specimens being incubated with agonist alone. […] The method of tissue preparation was as follows: 15-day old chick embryos were decapitated and their eyes removed and cut into quadrants after excising the cornea and removing the lens, vitreous and iris. The retinal quadrants were then gently separated from the pigment epithelium and incubated for 30 min. at 37° C. in BSS to which an agonist or agonist plus antagonist was added. The BSS contained 140 mM Na^+, 5.0 mM K^+, 0.5 mM Ca^++, 4 5mM Mg^++, 150 mM Cl^-, 5.6 mM glucose and bicarbonate/phosphate buffer (pH 7.3). After incubation for 30 min., the retinal quadrants were fixed by immersion in phosphatebuffered solution containing 1.5% glutaraldehyde and 1% paraformaldehyde, then additionally fixed in 1% osmium tetroxide, dehydrated in graded ethanols, cleared in toluene and embedded in araldite. Sections were cut 1 μM thick on a Sorval ultratome and stained with Methylene blue/Azure 11 for histopathological evaluation by light microscopy.

[6] = system: KA neurotoxicity in chick embryo retina; experiment: NMDA/KA Antagonist Assay, chick embryo retina, KA (25 μM) neurotoxicity; format: cell-based; settings: 15-day old chick embryo retina, 30 min at 37° C.
Description: as §1

[7] = system: chick embryo retina; experiment: Acute excitotoxic lesion of chick embryo retina by agonist alone; settings: 1 mM Glu, 30 min in BSS
Description: as §1

[8] = system: chick embryo retina; settings: chicken, 30 min
Description: as §1

[9] = system: N-methyl-D-aspartate receptor; settings: Wong et al, PNAS 1986; cited from earlier work

## CC1CCCN(C2(c3ccccc3)CCCCC2)C1 (single isomer, unassigned; (+)) [(+)-PCMP, (+)-1-(1-phenylcyclohexyl)-3-methylpiperidine]
[1]
  stereoselective effect over isomer counterpart in reducing the excitatory action of NMDA: stereoselective effects
[2]
  inhibition of the specific binding of [^3 H]PCP: potent inhibitor

## CNC1(c2ccccc2Cl)CCCCC1=O (stereo not drawn) [ketamine]
[3]
  reduction of excitatory effects of NMDA as compared to KA and QUIS: reduce selectively the excitatory effects of NMDA as compared to KA and QUIS
[4]
  blocking of NMA neurotoxicity: Blocking of NMA neurotoxicity

## c1ccc(C2(N3CCCCC3)CCCCC2)cc1 [PCP]
[3]
  reduction of excitatory effects of NMDA as compared to KA and QUIS: reduce selectively the excitatory effects of NMDA as compared to KA and QUIS
[4]
  blocking of NMA neurotoxicity: Blocking of NMA neurotoxicity

## 10-[2-(diethylamino)ethyl]phenothiazine [ethopropazine]
[5]
  concentration providing total protection against toxicity of NMA: 25.0 µM
[6]
  blocking of KA toxicity: not observed

## N[C@@H](CCC(=O)O)C(=O)O [Glu, Glutamate]
[7]
  retinal lesion: full lesion

## CN[C@H](CC(=O)O)C(=O)O [NMA, N-methyl-D-aspartate]
[8]
  lowest concentration required to consistently cause a fully-developed retinal lesion: 200 µM

## CC1CCC(c2ccccc2)(N2CCCCC2)CC1 (stereo not drawn) [cis-N-(1-phenyl-4-methylcyclohexyl)piperidine]
[1]
  stereoselective effect over isomer counterpart in reducing the excitatory action of NMDA: stereoselective effects

## C[C@]12N[C@H](Cc3ccccc31)c1ccccc12 [MK-801, (+)-5-methyl-10,11-dihydro-5H-dibenzo[a,d]cyclohepten-5,10-imine maleate)]
[9]
  antagonism of the N-methyl-D-aspartate receptor site: potent, selective non-competitive antagonist
